Results taken from ChEMBL document CHEMBL1201862, “PubChem BioAssay data set” (2004).
Activity calls are given as the source filed them.

Assays:
[1] = molecular target: Mitogen-activated protein kinase 10 (Homo sapiens, UniProt P53779); assay: Dose response biochemical screening assay for inhibitors of c-Jun N-Terminal Kinase 3 (JNK3). [Related pubchem assays: 746 ]
[2] = viability of uninfected HEp-2 cells – cell-based, HTS, cytotoxicity control for RSV inhibitor project, dose response (AID 2410); type: functional; settings: human respiratory syncytial virus
[3] = viability loss in THP-1 monocytes – THP-1 cells, cytotoxicity control for Vif-APOBEC3G degradation inhibitor project, dose response (AID 1117359); type: functional; settings: THP-1
[4] = molecular target: T1, Epstein-Barr nuclear antigen 1 (Epstein-Barr virus (strain B95-8) (HHV-4) (Human herpesvirus 4), UniProt P03211); assay: inhibition of EBV nuclear antigen 1 DNA binding – biochemical, fluorescence polarization, 1536-well, dose response (AID 2381); set-up: species or system human gammaherpesvirus 4;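 further: fluorescence polarization of a Cy5 DNA probe bound by EBNA-1 protein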
T1 sequence (P03211 whole entry): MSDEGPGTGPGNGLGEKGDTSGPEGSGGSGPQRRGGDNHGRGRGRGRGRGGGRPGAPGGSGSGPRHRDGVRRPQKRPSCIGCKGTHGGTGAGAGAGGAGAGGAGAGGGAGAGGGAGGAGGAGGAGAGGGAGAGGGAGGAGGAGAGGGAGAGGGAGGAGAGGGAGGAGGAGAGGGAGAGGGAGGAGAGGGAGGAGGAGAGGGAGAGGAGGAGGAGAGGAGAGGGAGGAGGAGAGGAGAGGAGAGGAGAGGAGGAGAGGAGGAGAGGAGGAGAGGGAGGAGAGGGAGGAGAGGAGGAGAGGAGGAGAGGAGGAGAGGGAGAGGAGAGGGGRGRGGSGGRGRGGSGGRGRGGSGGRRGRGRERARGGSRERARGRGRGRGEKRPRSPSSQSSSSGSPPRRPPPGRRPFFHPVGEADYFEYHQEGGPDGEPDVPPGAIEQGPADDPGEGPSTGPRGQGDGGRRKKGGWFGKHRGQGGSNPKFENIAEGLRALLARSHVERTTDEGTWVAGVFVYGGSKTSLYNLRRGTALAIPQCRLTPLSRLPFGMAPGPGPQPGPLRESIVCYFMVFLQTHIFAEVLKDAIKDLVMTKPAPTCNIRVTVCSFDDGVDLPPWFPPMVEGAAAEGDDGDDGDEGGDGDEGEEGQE

[5] = molecular target: T2, Lytic switch protein BZLF1 (Epstein-Barr virus (strain B95-8) (HHV-4) (Human herpesvirus 4), UniProt P03206); assay: inhibition of BZLF1 ZTA DNA binding – biochemical, fluorescence polarization, Epstein-Barr virus, 1536-well, counter-screen for EBNA-1 inhibitor project, dose response (AID 2377); set-up: species or system human gammaherpesvirus 4;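 further: fluorescence polarization of Cy5-labelled ZRE DNA probe bound by purified Zta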
T2 sequence (P03206 whole entry): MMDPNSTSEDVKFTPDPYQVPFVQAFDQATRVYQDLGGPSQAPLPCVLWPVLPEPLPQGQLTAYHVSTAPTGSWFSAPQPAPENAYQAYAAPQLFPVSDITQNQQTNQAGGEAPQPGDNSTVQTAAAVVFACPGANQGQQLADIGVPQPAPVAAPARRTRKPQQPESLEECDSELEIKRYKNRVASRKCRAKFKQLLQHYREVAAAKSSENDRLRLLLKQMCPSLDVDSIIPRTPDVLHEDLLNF

[6] = tested on: INS1; assay: INS-1E survival protection against cytokine death – cell-based, luminescence, retest, dose response (AID 449756); type: functional; settings: Rattus norvegicus;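 further: cell death triggered by IL-1 beta plus TNF-alpha plus IFN-gamma mixture; protective hits raise ATP signal compared with cytokine alone wells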
[7] = NIH3T3 cell viability loss – ATP luminescence, mouse fibroblasts, counter-screen, dose response (AID 2010); type: functional, cell-based;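 further: cells exposed to compound for about 90 hours before reading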
[8] = Trypanosoma cruzi growth suppression in host cells – NIH3T3 host cells, beta-gal luminescence, confirmation (AID 2044); type: functional, cell-based;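 further: intracellular parasites grown in NIH/3T3 mouse fibroblasts as host cells; luminescent beta-galactosidase reporter signal from transgenic T. cruzi replicating inside host cells; inhibitors lower the luminescence signal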
[9] = NIH-3T3 fibroblast cytotoxicity, dose response, cytotoxicity control, cell-based, fluorescence, Alamar Blue, secondary assay (AID 2327); type: functional;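 further: NIH-3T3 mouse fibroblasts cultured with fluconazole at 8 µg/mL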
[10] = fluconazole-exposed Candida albicans growth modulators – fluorescence, retest, confirmation (AID 2467); type: functional, cell-based
[11] = cells
[12] = off-target signal loss in HeLa-CEM21 co-culture – HeLa F-luc CTL cells, cherry-picked, counter-screen for HIV-1 Env fusion inhibitor project, dose response (AID 652040); type: functional, cell-based;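 further: potency for signal decrease marking cytotoxic or nonspecific inhibition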
[13] = viability loss in CEM21 cells – cell-based, CellTiter-Glo luminescence, cherry-picked, cytotoxicity control for viral fusion inhibitor project, dose response (AID 652042); type: functional;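 further: potency for signal decrease meaning cytotoxicity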
[14] = blockers of HIV-1 ZM109 envelope-driven cell-cell fusion – HeLa effector, CEM target cells, luciferase, cherry-pick, dose response (AID 652058); type: functional, cell-based;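 further: luciferase signal from HIV-1 Env mediated cell-cell fusion of effector and target cells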
[15] = HIV-1 AD8 envelope cell-cell fusion blockers – cherry-pick, dose response (AID 652062); type: functional, cell-based;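 further: luciferase signal from cell-cell fusion driven by HIV-1 clade B AD8 Env; potency is for inhibitors of fusion seen as a drop in luminescence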
[16] = molecular target: T3, Short transient receptor potential channel 4 (Mus musculus, UniProt Q9QUQ5); assay: calcium entry via TRPC4 opening agents – cell-based, HEK293 TRPC4/mu-opioid, Fluo-4 calcium, dose response (AID 434937); type: functional
T3 sequence (Q9QUQ5 whole entry): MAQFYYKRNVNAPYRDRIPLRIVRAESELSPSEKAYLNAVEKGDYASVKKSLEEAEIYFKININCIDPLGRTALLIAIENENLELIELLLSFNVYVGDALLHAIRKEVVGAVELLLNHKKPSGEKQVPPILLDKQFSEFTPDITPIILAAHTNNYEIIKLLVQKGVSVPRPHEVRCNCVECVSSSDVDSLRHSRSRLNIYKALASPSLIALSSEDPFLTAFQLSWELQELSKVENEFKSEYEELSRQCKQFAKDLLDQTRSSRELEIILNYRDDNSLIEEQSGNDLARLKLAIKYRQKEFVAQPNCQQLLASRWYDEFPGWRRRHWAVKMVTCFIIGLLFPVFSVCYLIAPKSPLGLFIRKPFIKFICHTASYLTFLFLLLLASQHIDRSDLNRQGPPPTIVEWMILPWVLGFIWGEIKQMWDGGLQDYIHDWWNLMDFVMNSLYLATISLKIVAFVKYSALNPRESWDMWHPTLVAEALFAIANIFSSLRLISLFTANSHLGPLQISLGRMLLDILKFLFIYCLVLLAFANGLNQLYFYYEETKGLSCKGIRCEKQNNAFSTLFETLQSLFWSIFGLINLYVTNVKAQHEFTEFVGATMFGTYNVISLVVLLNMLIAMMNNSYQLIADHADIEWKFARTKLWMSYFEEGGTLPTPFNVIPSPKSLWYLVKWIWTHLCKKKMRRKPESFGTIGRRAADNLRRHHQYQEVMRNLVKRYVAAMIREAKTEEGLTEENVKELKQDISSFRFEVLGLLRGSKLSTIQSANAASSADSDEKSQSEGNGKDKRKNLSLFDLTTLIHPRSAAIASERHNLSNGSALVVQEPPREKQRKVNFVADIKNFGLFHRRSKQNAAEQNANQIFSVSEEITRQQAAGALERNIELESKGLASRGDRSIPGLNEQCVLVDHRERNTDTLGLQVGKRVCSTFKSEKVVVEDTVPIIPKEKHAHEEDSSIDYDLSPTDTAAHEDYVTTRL

[17] = blockers of HIV-1 envelope-mediated cell-cell fusion – cherry-pick, dose response (AID 652057); type: functional, cell-based
[18] = viability loss in HepG2 hepatoma cells – cell-based, ATP luminescence, cherry-pick, activator set 2, cytotoxicity control, dose response (AID 1053143); type: functional
[19] = Dd2 malaria parasite growth inhibition potency – SYBR Green, dry powder samples, dose response (AID 1159566); type: functional, cell-based;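 further: potency for growth inhibition with lower SYBR green DNA signal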
[20] = growth inhibition of yeast DHODH-expressing 3D7 parasites – SYBR Green, dry powder samples, dose response (AID 1159570); type: functional, cell-based;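 further: parasite growth measured after 72 hours of compound exposure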
[21] = growth inhibition of PfATP4-mutant resistant parasites – NITD609-resistant line, SYBR Green, dry powder, dose response (AID 1159571); type: functional, cell-based;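 further: parasites synchronized at ring stage by sorbitol before testing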
[22] = P. falciparum Dd2 growth inhibitors, dose response, SYBR Green, cherry-picked samples (AID 1159567); type: functional, cell-based

Sequence of Mitogen-activated protein kinase 10 (P53779 whole entry): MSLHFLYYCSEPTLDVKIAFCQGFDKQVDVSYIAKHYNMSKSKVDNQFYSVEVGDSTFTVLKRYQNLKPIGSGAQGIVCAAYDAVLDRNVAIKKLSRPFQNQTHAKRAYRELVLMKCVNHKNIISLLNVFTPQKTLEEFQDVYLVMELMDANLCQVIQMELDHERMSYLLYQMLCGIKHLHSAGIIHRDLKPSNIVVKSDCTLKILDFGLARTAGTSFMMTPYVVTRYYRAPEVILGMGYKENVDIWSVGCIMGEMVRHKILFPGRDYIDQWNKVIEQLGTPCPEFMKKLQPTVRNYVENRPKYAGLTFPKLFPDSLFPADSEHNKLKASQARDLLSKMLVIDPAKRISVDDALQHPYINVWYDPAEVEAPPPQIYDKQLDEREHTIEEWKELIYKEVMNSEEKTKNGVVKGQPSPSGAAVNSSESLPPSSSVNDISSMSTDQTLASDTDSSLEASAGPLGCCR

COC(=O)c1sccc1NC(=O)CN1CCN(c2ccc(F)cc2)CC1
IC50 [1]: 15.6 µM (not active)
CC50 [2]: 22.2 µM (active)

COc1ccc(/C=C/CN2CCN(Cc3ccccc3)C(CCO)C2)cc1 (centres undefined)
CC50 [3]: > 40 µM (active)

CCOC(=O)c1ccc(Cn2cnc3ccccc3c2=O)cc1
IC50 [1]: 12.3 µM (not active)

COc1cc(-c2nc3n(n2)C(c2cccc(OC)c2OC)C2=C(O)CCCC2=N3)cc(OC)c1OC (centres undefined)
IC50 [4]: 12.9 µM (not active)
IC50 [5]: > 111 µM (not active)

CCN1/C(=C/c2cccc[n+]2C)Sc2ccc(OC)cc21
AC50 [6]: 1.65 µM (active)
EC50 [7]: > 60 µM (not active)
EC50 [8]: < 0.1 µM (active)
EC50 [9]: > 150 µM (inactive)
EC50 [10]: 0.961 µM (active)
EC50 [11]: 0.084 µM (active)

COc1cc(C)c(CNCCc2c[nH]c3ccccc23)cc1C
AC50 [12]: 3.7 µM (active)
AC50 [13]: 22.9 µM (active)
AC50 [14]: 0.482 µM (active)
AC50 [15]: 6.52 µM (active)
EC50 [16]: 2.66 µM (active)
AC50 [17]: 1.51 µM (active)

Oc1cc(-c2ccccc2)nc2nc3ccccc3n12
AC50 [18]: 26 µM (active)
IC50 [1]: > 31 µM (not active)

COc1ccc2c3c([nH]c2c1)[C@H](CO)N(C(=O)C1CCCCC1)CC31CCN(Cc2nccs2)CC1
AC50 [19]: 0.183 µM (active)
AC50 [20]: 0.158 µM (active)
AC50 [21]: 0.198 µM (active)
AC50 [22]: 0.833 µM (active)

O=C1CCCc2nn(-c3ccccc3)c(-c3ccncc3)c21
IC50 [1]: 42.3 µM (not active)

CN(CCOc1ccc(Br)cc1)CC(O)c1ccccc1 (centres undefined)
EC50 [7]: > 60 µM (not active)
EC50 [8]: < 0.1 µM (active)
EC50 [16]: 1.33 µM (active)
EC50 [11]: 0.269 µM (active)
